Assay results taken from ChEMBL document CHEMBL1146405, “Dioncophylline A as a growth-retarding agent against the herbivorous insect Spodoptera littoralis: structure-activity relationships” (J Nat Prod, 1997).

Test system: Spodoptera littoralis
Assay: Insecticidal activity against Spodoptera littoralis larvae assessed per gram of fresh weight of diet administered through artificial diet measured after 6 days
Assay type: functional, organism-based

Compared with `CCCCCCCCCCCC(=O)Oc1c(-c2c(C)cc(OC)c3c(OC)cccc23)ccc2c1[C@@H](C)N(C=O)[C@H](C)C2`, `CCCCOc1c(-c2c(C)cc(OC)c3c(OC)cccc23)ccc2c1[C@@H](C)N(C=O)[C@H](C)C2` [8-O-N-BUTYL-N-FORMYLDIONCOPHYLLINE A] is lower in EC50: over 750 µg/g for the first, 182 µg/g for the second.

Compared with `COc1cccc2c(-c3ccc4c(c3OCc3ccc([N+](=O)[O-])cc3)[C@@H](C)N[C@H](C)C4)c(C)cc(OC)c12`, `COc1cccc2c(-c3ccc4c(c3OCc3ccc(Cl)cc3)[C@@H](C)N[C@H](C)C4)c(C)cc(OC)c12` is lower in EC50: 25.6 µg/g for the first, 16.4 µg/g for the second.

First: COc1cccc2c(-c3ccc4c(c3OCc3ccc(C(F)(F)F)cc3)[C@@H](C)N[C@H](C)C4)c(C)cc(OC)c12
Second: COc1cccc2c(-c3ccc4c(c3OCc3ccc(Br)cc3)[C@@H](C)N[C@H](C)C4)c(C)cc(OC)c12
The EC50 of the first is higher: 35.1 µg/g for the first, 15.6 µg/g for the second.

Going from `COc1c(-c2c(C)cc(OC)c3c(OC)cccc23)ccc2c1[C@@H](C)N(C=O)[C@H](C)C2` to `COc1cccc2c(-c3ccc4c(c3OC(C)=O)[C@@H](C)N(C=O)[C@H](C)C4)c(C)cc(OC)c12` [8-O-ACETYL-N-FORMYLDIONCOPHYLLINE A], the EC50 rises from 171 µg/g to 361 µg/g.

Going from `COc1cccc2c(-c3ccc4c(c3O)[C@@H](C)N(C)[C@H](C)C4)c(C)cc(OC)c12` to `COc1cccc2c(-c3ccc4c(c3O)[C@@H](C)N(C(C)=O)[C@H](C)C4)c(C)cc(OC)c12` [N-ACETYLDIONCOPHYLLINE A], the EC50 falls from 377 µg/g to 291 µg/g.

Going from `COc1cccc2c(-c3cc(Br)c4c(c3O)[C@@H](C)N[C@H](C)C4)c(C)cc(OC)c12` [5-BROMODIONCOPHYLLINE A] to `COc1cccc2c(-c3ccc4c(c3O)[C@@H](C)N[C@H](C)C4)c(C)cc(OC)c12` [DIONCOPHYLLINE A], the EC50 rises from 193 µg/g to 277 µg/g.

Compared with `COc1cccc2c(-c3ccc4c(c3OC(=O)c3ccccc3)[C@@H](C)N(C=O)[C@H](C)C4)c(C)cc(OC)c12` [8-O-BENZOYL-N-FORMYLDIONCOPHYLLINE A], `COc1cccc2c(-c3ccc4c(c3OCc3ccccc3)[C@@H](C)N(C=O)[C@H](C)C4)c(C)cc(OC)c12` [8-O-BENZYL-N-FORMYLDIONCOPHYLLINE A] is lower in EC50: 132 µg/g for the first, 67.1 µg/g for the second.

Compared with `COc1cccc2c(-c3ccc4c(c3OCc3ccccc3)[C@@H](C)N[C@H](C)C4)c(C)cc(OC)c12` [8-O-BENZYLDIONCOPHYLLINE A], `COc1cccc2c(-c3ccc4c(c3OC(C)C)[C@@H](C)N[C@H](C)C4)c(C)cc(OC)c12` [8-O-ISOPROPYLDIONCOPHYLLINE A] is higher in EC50: 27.1 µg/g for the first, 94.1 µg/g for the second.

Going from `COc1cccc2c(-c3ccc4c(c3OC(C)=O)[C@@H](C)N(C(C)=O)[C@H](C)C4)c(C)cc(OC)c12` [N-ACETYL-8-O-ACETYLDIONCOPHYLLINE A] to `COc1cccc2c(-c3ccc4c(c3OC(=O)C(C)(C)C)[C@@H](C)N(C=O)[C@H](C)C4)c(C)cc(OC)c12` [N-FORMYL-8-O-PIVALOYLDIONCOPHYLLINE A], the EC50 rises from 331 µg/g to 333 µg/g.

First: COc1cccc2c(-c3ccc4c(c3OC(C)C)[C@@H](C)N(C=O)[C@H](C)C4)c(C)cc(OC)c12 [N-FORMYL-8-O-ISOPROPYLDIONCOPHYLLINE A]
Second: COc1cccc2c(-c3ccc4c(c3O)[C@@H](C)N(C=O)[C@H](C)C4)c(C)cc(OC)c12 [N-FORMYLDIONCOPHYLLINE A]
The EC50 of the first is lower: 130 µg/g for the first, 454 µg/g for the second.
